The values that follow come from patent US20150274634A1, “COMPOUNDS FOR THE TREATMENT OF OBESITY AND METHODS OF USE THEREOF” (The Children's Medical Center Corporation, priority 2014, published 2015).

The conditions of data set [1]: weight loss products; cited from earlier work.
The test system of data set [2] is HFD-fed obese mice. The data set can be described thus: Leptin injection upon acute celastrol treatment, HFD-fed obese mice. The conditions noted are these: leptin 10 mg/kg i.p. Type of data set: in vivo. Here is the method: (§1) It was therefore hypothesized that celastrol exerts anti-obesity effects through increasing leptin sensitivity in the brains of the HFD-fed obese mice. To test this hypothesis, leptin was administered to celastrol- or vehicle-treated HFD-fed obese animals. To avoid any possible leptin sensitizing effect of weight loss or decreased food intake created by celastrol administration, leptin injections were carried out upon acute celastrol treatment as described below.
(§2) Lean and HFD-fed obese mice were divided into four groups: 1) DMSO+saline, 2) DMSO+leptin, 3) celastrol+saline, and 4) celastrol+leptin (n=3 per group). Mice were injected (i.p.) with 100 μg/kg celastrol or vehicle (DMSO) one hour before dark cycle (day zero). 24 hours later, mice were injected for a second time with celastrol or DMSO (day 1), and all animals were then taken to 24 hour-fasting. On day two, at 21 hours of fasting, mice received a final injection of DMSO or celastrol. 30 minutes prior to dark cycle, at 23.5 hour of fasting, mice received a single i.p. injection of leptin (10 mg/kg, dissolved in saline), or saline. […] 1, 3, 6, 15, and 24-hour food intake and 24-hour body weight changes were recorded (FIG. 7A). […] This is clearly evident when food intake of the celastrol-treated mice is calculated in percent values (FIG. 7B). […]

The test system of data set [3] is lean mice. The data set can be described thus: Leptin injection upon acute celastrol treatment, lean mice. Type of data set: in vivo. The conditions noted are these: 6-hour time point, leptin 10 mg/kg i.p., DMSO or celastrol 100 μg/kg i.p. pretreatment. Here is the method: as §1, §2
Data set [4] deals with mice. The data set can be described thus: Locomotor activity (Comprehensive Lab Animal Monitoring System). Type of data set: in vivo. Here is the method: FIGS. 16A and 16B are graphs showing x (FIG. 16A) and y (FIG. 16B) direction ambulatory motion for control and celastrol in dark and light cycles. Toxicity was evaluated using Columbus Instruments Comprehensive Lab Animal Monitoring System we have measure the locomotor activity of the animals.
Locomotor activity was also normal in celastrol-treated mice. This is consistent with celastrol not having a toxic effect causing anorexia and weight loss, since the latter would be associated with decreased locomotor activity.
FIGS. 16A and 16B are graphs showing x (FIG. 16A) and y (FIG. 16B) direction ambulatory motion for control and celastrol in dark and light 2 cycles. Toxicity was evaluated using Columbus Instruments Comprehensive Lab Animal Monitoring System we have measure the locomotor activity of the animals.

Data set [5] deals with alanine transaminase (ALT). The experiment in a line: Serum ALT by ELISA. Type of data set: in vivo. The conditions noted are these: HFD-fed obese mice; 100 μg/kg i.p., three weeks. Here is the method:
(§3) To investigate the effect of celastrol administration on liver function, serum levels of alanine transaminase (ALT) and aspartate transaminase (AST) were measured in mice following three weeks of celastrol treatment (100 μg/kg, i.p.). ALT and AST were measured using an enzyme-linked immunosorbent assay (ELISA) kit (from Bio Scientific).
A general note: In an ELISA, binding on a coated surface is turned into a signal by an enzyme label.

Data set [6] concerns aspartate transaminase (AST). The experiment in a line: Serum AST by ELISA. Type of data set: in vivo. The conditions noted are these: HFD-fed obese mice; 100 μg/kg i.p., three weeks. Here is the method:
as §3

Data set [7] has as its system HFD-fed obese mice. The data set can be described thus: Liver and kidney histology (H&E). Type of data set: in vivo. The conditions noted are these: 100 μg/kg i.p., three weeks.

With `[Cr]` [Chromium], the Safety result in data set [1] is on record as “Likely safe”.
Turning to “Conjugated linoleic acid [Conjugated linoleic acid (CLA)]”, in data set [1], the Effectiveness result is given as “Possibly effective” and the Safety entry is “Possibly safe”.
As to “leptin: peptide hormone, afferent signal in a negative feedback loop regulating food intake and body weight”, the “decrease in food intake upon leptin injection” value is recorded as “approximately 40%” in data set [2] (6-hour time point, DMSO or celastrol 100 μg/kg i.p. pretreatment) and “approximately 40%” in data set [3]. Also, the “24-hour body weight change” value in data set [2] (24 hour ad libitum feeding after 24-hour fasting, celastrol 100 μg/kg i.p.) was “resistant”.
As to `CC1=C(O)C(=O)C=C2C1=CC=C1[C@@]2(C)CC[C@@]2(C)[C@@H]3C[C@](C)(C(=O)O)CC[C@]3(C)CC[C@]12C` [celastrol], the locomotor activity result in data set [4] (celastrol-treated mice) was “normal”. The “x and y direction ambulatory motion counts” value in data set [4] (dark and light cycles, celastrol versus control) is recorded as “not significantly different”. Further, the “serum ALT level” value in data set [5] is “decreases”. Further, the “serum AST level” value in data set [6] is reported as “decreases”. Besides, in data set [7], the kidney morphology result was “no detectable change”.
